Laboratory results: patent US5578477A, “Identification and characterization of inhibtors of protein farnesyltransferase” (Arch Development Corporation, priority 1993, dated 1996)
Peptide text beside a SMILES is read from it.

What was measured:
[1] = molecular target: T1, yeast FTase (Saccharomyces cerevisiae, UniProt P22007+P29703); assay: Prenyltransferase (FTase) assay with [3H]Fpp and GST-CIIS, purified yeast FTase; assay type: biochemical; conditions: for inhibition of FTase activity by salts: 100 mM salt
T1 construct: FTase was purified from SP1 cells carrying plasmids pBH28 and YEpDPR1 as described herein; made in house; host or cells: Saccharomyces cerevisiae SP1 carrying YEpDPR1 and pBH28
T1 sequence (P22007 1-431): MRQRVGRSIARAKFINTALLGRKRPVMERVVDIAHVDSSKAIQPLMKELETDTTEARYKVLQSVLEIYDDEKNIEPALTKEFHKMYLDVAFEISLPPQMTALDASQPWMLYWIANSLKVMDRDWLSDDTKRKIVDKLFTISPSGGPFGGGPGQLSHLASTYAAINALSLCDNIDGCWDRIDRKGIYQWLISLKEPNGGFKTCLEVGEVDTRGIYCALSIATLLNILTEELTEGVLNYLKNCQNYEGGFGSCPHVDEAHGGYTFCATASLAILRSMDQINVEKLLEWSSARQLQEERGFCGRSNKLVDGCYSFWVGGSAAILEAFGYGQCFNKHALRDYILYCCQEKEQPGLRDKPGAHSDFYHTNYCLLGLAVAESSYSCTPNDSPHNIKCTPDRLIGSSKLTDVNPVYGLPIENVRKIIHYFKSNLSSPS
T1 sequence (P29703 1-316): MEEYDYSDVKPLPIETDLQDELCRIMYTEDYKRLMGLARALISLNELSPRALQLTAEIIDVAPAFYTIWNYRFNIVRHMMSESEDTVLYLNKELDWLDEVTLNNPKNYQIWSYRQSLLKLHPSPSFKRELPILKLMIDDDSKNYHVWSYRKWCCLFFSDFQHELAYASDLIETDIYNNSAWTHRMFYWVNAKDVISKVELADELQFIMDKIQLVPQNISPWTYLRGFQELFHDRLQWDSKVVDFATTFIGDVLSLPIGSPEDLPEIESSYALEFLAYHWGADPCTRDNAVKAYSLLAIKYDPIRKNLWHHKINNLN
Description: Prenyltransferase assays were performed essentially as described in Goodman et al., 1990; Finegold et al., 1991. Briefly, the reaction mixture (20 μl) contained 50 mM potassium phosphate, pH 7.4 (or 50 mM Tris/HCl, pH 8.0), 10 mMMgCl2, 5 mM DTT, 5 μM ZnCl2, 0.8-1.12 μM [^3 H] farnesyl pyrophosphate (Fpp) (20 Ci/mmol; New England Nuclear) or [^3 H] geranylgeranyl pyrophosphate (GGpp) (20 Ci/mmol; New England Nuclear, Boston, Mass.), 19 μg of GST-CIIS or 30 μg of GST-CIIL protein and enzymes. Incubation was carried out at 37° C., and the radioactivity incorporated was determined by spotting the reaction mixture onto a filter paper, treating with 10% trichloroacetic acid, followed by ethanol and acetone washing.
Reaction mixture (20 μl) for results shown in open squares contained 1.12 μM [^3 H] Fpp, 4.38 ng FTase, 19 μM GST-CIIS, 0.1 mM EDTA and the indicated concentration of MgCl2. Reaction mixtures (20 μl) for results shown in closed diamond contained 0.1 mM ZnCl2 in addition to the above. Incubation was carried out for 10 minutes at 37° C. and radioactivity incorporated was determined as described herein.
Substrate specificity of yeast FTase was investigated by comparing incorporation of Fpp or GGpp into two different substrate proteins, GST-CIIS (.quadrature.) and GST-CIIL (.circle-solid.). […] The reaction mixture (20 μl) contained 1.12 μM [^3 H] Fpp, 20 ng FTase, and the indicated concentrations of either GST-CIIS or GST-CIIL1 protein. Incubations were carried out for 10 minutes at 37° C. and the radioactivity incorporated was measured as described herein.
Dilution of the peptides was made in 10 mM DTT. Incubation was carried out for 10 minutes at 37° C. and the radioactivity incorporated was determined as described herein.

[2] = molecular target: T2, PGGT I (Bos taurus, UniProt P29702+Q5EAD5); assay: PGGT assay using GST-CIIL protein and [3H]GGpp; assay type: biochemical, bovine
T2 construct: PGGT purified from bovine brain was a gift of Drs; M. Gelb and K. Yokoyama; tissue gift of Drs; M. Gelb and K. Yokoyama (Univ. of Washington); host or cells: bovine brain
Description: (§1) Farnesyltransferase assay. FTase from S. cerevisiae was purified from yeast cells overexpressing DPR1 and RAM2 as described herein. Rat brain FTase was partially purified by the method described by Reiss et al. PGGT purified from bovine brain was a gift of Drs. M. Gelb and K. Yokoyama (Univ. of Washington). FTase assays were carried out using RAS2CT1 protein and [^3 H]Fpp according to the method described herein except that Tris-HCl(pH8) was used instead of phosphate buffer. PGGT assays were carried out using GST-CIIL protein and [^3 H]GGpp as described herein except that Tris-HCl(pH7.4) was used instead of phosphate buffer. […] Incubation was carried out at 37° C.
FIG. 6B compares the effect of UCF1-C on PGGT I and PFT.

[3] = molecular target: T3, yeast PFT (Saccharomyces cerevisiae, UniProt P22007+P29703); assay: Farnesyltransferase assay using RAS2CT1 protein and [3H]Fpp, without dithiothreitol; assay type: biochemical, S. cerevisiae
T3 construct: FTase was purified from SP1 cells carrying plasmids pBH28 and YEpDPR1 as described herein; made in house; host or cells: Saccharomyces cerevisiae SP1 carrying YEpDPR1 and pBH28
T3 sequence (P22007 1-431): T1 sequence (P22007 1-431)
T3 sequence (P29703 1-316): T1 sequence (P29703 1-316)
Description: as §1
Inhibition of Farnesyltransferase.
To investigate the mechanism of inhibition by UCF1-C, kinetic analyses were carried out. […] The same Km value was observed when the Linewaver-Burke plot was analyzed under different ras and UCF1-C concentrations (.quadrature.=0 μM, .tangle-solidup.=10 μM, and .box-solid.=20 μM) in the presence of a constant concentration of Fpp.

Molecule: O=C(O)CN(CCN(CC(=O)O)CC(=O)O)CC(=O)O [EDTA]
- effect of EDTA addition on FTase activity [1]: dramatic inhibition

Molecule: CC(C)=CCC/C(C)=C/CC/C(C)=C/COP(=O)(O)OP(=O)(O)O [Fpp, farnesyl pyrophosphate]
- Km ([1]; secondary plots, substrates Fpp and GST-CIIS varied): 8.1 µM

Molecule: [Cl-].[K+] [KCl]
- inhibition of FTase activity by salts [1]: Approximately 50%

Molecule: [Cl-].[Li+] [LiCl]
- inhibition of FTase activity by salts [1]: Approximately 50%

Molecule: CSCC[C@H](NC(=O)[C@H](CC(C)C)NC(=O)[C@@H](NC(=O)[C@H](CS)NC(=O)[C@H](CS)NC(=O)[C@@H](NC(=O)[C@H](CO)NC(=O)[C@H](CC(N)=O)NC(=O)[C@H](CO)NC(=O)[C@@H](N)CC(N)=O)C(C)C)[C@@H](C)O)C(=O)O [MG13, NSNSVCCTLM] (H-NSNSVCCTLM-OH)
- IC50 [1]: 10 µM

Molecule: [Cl-].[Na+] [NaCl]
- inhibition of FTase activity by salts [1]: Approximately 50%

Molecule: CCCC[C@@H](C)/C=C(C)/C=C(\C)C(=O)NC1=C[C@@](O)(/C=C/C=C/C=C/C(=O)NC2=C(O)CCC2=O)[C@@H]2O[C@@H]2C1=O [UCF1-C]
- PGGT I activity still detectable ([2]; 1 mM concentration): approximately 30%
- IC50 ([2]; GST-CIIL, [3H]GGpp, Tris-HCl pH 7.4, read-out: IC50 for PGGT I inhibition): 180 µM
- mechanism of inhibition with respect to Fpp ([3]; Lineweaver-Burk, changes Km for Fpp, not Vmax): competitive inhibitor
- mechanism of inhibition with respect to ras protein ([3]; Lineweaver-Burk, same Km for RAS2, constant Fpp): non-competitive inhibitor
- IC50 ([3]; RAS2CT1, [3H]Fpp, Tris-HCl pH 8, no dithiothreitol, 37° C.): 5 µM
- Ki ([3]; secondary plot of slopes against UCF1-C concentration, Fpp varied, constant ras): 1.2 µM

Molecule: EHWSYGLRPG [LHRH]
- inhibition of FTase activity by peptide (in words) ([1]; control peptides of the same size, unrelated sequences): little inhibition
